Patent US20190136188A1, “4HPR AND ITS USE IN THE CULTURING OF HEMATOPOIETIC STEM CELLS” (UNIVERSITY HEALTH NETWORK, priority 2016, published 2019)

System: CD34+CD38- (stem) and CD34+CD38+ (prog) cells
Assay: cyto-ID flow cytometry (autophagic flux)
Format: cell-based, human
Settings: day 2
Procedure: (A) Representative mmunofluorescence images taken by confocal microscopy for DAPI (blue) and LC3II staining (green) for CD34+CD38− cells (stem) following 2 days of treatment with DMSO control or 2 uM 4HPR with and without the autophagy inhibitor baflomycin A1 (BAF) to assay for basal autophagy and autophagic flux. (B) Quantitation of LC3II foci area as a percentage of total cell area for stem and prog (CD34+38+) cells from three independent CB using R and Image J software. (C) LCII foci area is increased with 4HPR treatment relative to control in the presence of BAF only in stem populations and not Prog populations. (D) Representative flow cytometry histogram plot of cyto-ID fluorescence intensity of control (black) and 4HPR (green) treated stem cells to assay for autophagic flux. Lower mean fluorescence intensity (MFI) indicates more turnover of autophagosomes and thus increased autophagic flux. […] (F) Cytokine withdrawal for 3 hours activates autophagic flux in CB stem cells to similar levels as 2 uM 4HPR as assayed by cyto-ID flow cytometry at day 2 post-treatment (n=3).
(B). […] This difference in mitochondrial content is lost by day 3 post culture (See FIG. 3K).
We hypothesize that such selective enhancement of CFC cloning efficiency with 4HPR treatment is a result of activating autophagy in HSC in human CB. […]

CC1=C(/C=C/C(C)=C/C=C/C(C)=C/C(=O)Nc2ccc(O)cc2)C(C)(C)CCC1 [4HPR, N-(4hydroxyphenyl)retinamide]
autophagic flux by cyto-ID (0.2 uM or 2 uM 4HPR vs vehicle, stem vs prog): only significantly induced in stem but not prog cells
autophagy activated by cytokine withdrawal (cytoID) (CB stem cells, 3 hour cytokine withdrawal): further enhanced in the presence of 4HPR
